Source: ChEMBL document CHEMBL4699620, “Peptide Inhibitors of the α-Cobratoxin-Nicotinic Acetylcholine Receptor Interaction” (J Med Chem, 2020)
pIC50, pKi: −log10 of the molar value. Where a SMILES comes first, the peptide text is derived from it. [ ]: non-standard residue; d: D form. PEG6 = NCCOCCOCCOCCOCCOCCOCCC(=O)O

Assays:
[1] = Stability of compound in PBS buffer measured after 1 day at 37 degC by HPLC analysis; type: physicochemical; settings: 24 h
[2] = Stability of compound in PBS buffer assessed as compound degradation measured after 9 days at room temperature by HPLC analysis; type: physicochemical; settings: time 9 day, read-out: Drug degradation
[3] = Stability of compound in PBS buffer assessed as compound degradation measured after 2 days at 37 degC by HPLC analysis; type: physicochemical; settings: time 2 day, read-out: Drug degradation
Alpha-cobratoxin = target: T1, Alpha-cobratoxin (Naja kaouthia, UniProt P01391); assay: Displacement of TAMRA-HAKTYMWDGWYMPTSH-NH2 from Naja kaouthia alpha-cobratoxin by fluorescence polarization assay
T1 sequence (P01391 whole entry): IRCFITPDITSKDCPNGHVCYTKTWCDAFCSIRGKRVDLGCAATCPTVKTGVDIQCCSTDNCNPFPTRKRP

[4] = Stability of compound in PBS buffer measured after 1 day at room temperature by HPLC analysis; type: physicochemical; settings: 24 h

Compound: CSCC[C@H](NC(=O)[C@H](Cc1ccc(O)cc1)NC(=O)[C@H](Cc1c[nH]c2ccccc12)NC(=O)CNC(=O)[C@H](CC(=O)O)NC(=O)[C@H](Cc1c[nH]c2ccccc12)NC(=O)[C@H](CCSC)NC(=O)[C@H](Cc1ccc(O)cc1)NC(=O)CCOCCOCCOCCOCCOCCOCCN)C(N)=O (H-[PEG6]YMWDGWYM-NH2)
- Stabilty [1]: Stable
- degraded at 216 h [2]: 7%
- degraded at 48 h [3]: 7%
- pKi (Alpha-cobratoxin): 4.59
- Stabilty [4]: Stable

Compound: Ac-HAKTYMWDGWYMPTSH-NH2
- Stabilty [1]: Stable
- pIC50 (Alpha-cobratoxin): 4.54
- pKi (Alpha-cobratoxin): 5.70
- Stabilty [4]: Stable
